Assay results reported in patent publication EP2027081B1, “THERAPEUTIC PROSTAGLANDIN COMPOUNDS FOR THE TREATMENT OF GLAUCOMA” (ALLERGAN, INC., priority 2006, dated 2007).

Columns and labels:
[1] = target: T1, hEP2/Gqs5 (Homo sapiens, UniProt P43116); test: FLIPR calcium signal study, HEK-293(EBNA) cells; type: cell-based; settings: Table 1; Ca2+ signal; NA means not active; read-out: FUNCTIONAL (Ca2+, EC50, nM) HEP 2
T1 construct: expressed in transfected cells; host or cells: HEK-293(EBNA)
Experimental: (§1) Cells were seeded at a density of 5x10^4 cells per well in Biocoat® Poly-D-lysine-coated black-wall, clear-bottom 96-well plates (Becton-Dickinson) and allowed to attach overnight in an incubator at 37 °C. Cells were then washed two times with HBSS-HEPES buffer (Hanks Balanced Salt Solution without bicarbonate and phenol red, 20 mM HEPES, pH 7.4) using a Denley Cellwash plate washer (Labsystems). After 45 minutes of dye-loading in the dark, using the calcium-sensitive dye Fluo-4 AM at a final concentration of 2 µM, plates were washed four times with HBSS-HEPES buffer to remove excess dye leaving 100 µl in each well. Plates were re-equilibrated to 37 °C for a few minutes.
Cells were excited with an Argon laser at 488 nm, and emission was measured through a 510-570 nm bandwidth emission filter (FLIPR™, Molecular Devices, Sunnyvale, CA). […] The peak increase in fluorescence intensity was recorded for each well. […] The peak fluorescence change in each drug-containing well was then expressed relative to the controls.
(§2) Compounds were tested in a high-throughput (HTS) or concentration-response (CoRe) format. In the HTS format, forty-four compounds per plate were examined in duplicates at a concentration of 10^-5 M. To generate concentration-response curves, four compounds per plate were tested in duplicates in a concentration range between 10^-5 and 10^-11 M. The duplicate values were averaged.

[2] = target: T2, hDP/Gqs5 (Homo sapiens, UniProt Q13258); test: FLIPR calcium signal study, HEK-293(EBNA) cells; type: cell-based; settings: Table 1; NA means not active; read-out: FUNCTIONAL (Ca2+, EC50, nM) HDP
T2 construct: expressed in transfected cells; host or cells: HEK-293(EBNA)
T2 sequence (Q13258 whole entry): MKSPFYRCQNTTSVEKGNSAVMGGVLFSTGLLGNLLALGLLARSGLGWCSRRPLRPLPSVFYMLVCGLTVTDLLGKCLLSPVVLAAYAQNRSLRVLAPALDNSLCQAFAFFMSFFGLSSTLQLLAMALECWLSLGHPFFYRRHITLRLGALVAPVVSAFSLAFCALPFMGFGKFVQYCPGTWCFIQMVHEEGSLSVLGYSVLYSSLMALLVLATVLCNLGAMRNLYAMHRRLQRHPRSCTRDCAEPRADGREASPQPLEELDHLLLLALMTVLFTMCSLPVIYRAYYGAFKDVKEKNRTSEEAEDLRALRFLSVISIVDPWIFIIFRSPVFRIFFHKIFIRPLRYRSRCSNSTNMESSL
Experimental: HEK-293(EBNA) cells, stably expressing one type or subtype of recombinant human prostaglandin receptors (prostaglandin receptors expressed: hDP/Gqs5; hEP1; hEP2/Gqs5; hEP3A/Gqi5; hEP4/Gqs5; hFP; hIP; hTP), were cultured in 100 mm culture dishes in high-glucose DMEM medium containing 10% fetal bovine serum, 2 mM I-glutamine, 250 µg/ml geneticin (G418) and 200 µg/ml hygromycin B as selection markers, and 100 units/ml penicillin G, 100 µg/ml streptomycin and 0.25 µg/ml amphotericin B.
as §1
Cells were excited with an Argon laser at 488 nm, and emission was measured through a 510-570 nm bandwidth emission filter (FLIPR™, Molecular Devices, Sunnyvale, CA). Drug solution was added in a 50 µl volume to each well to give the desired final concentration. The peak increase in fluorescence intensity was recorded for each well. On each plate, four wells each served as negative (HBSS-HEPES buffer) and positive controls (standard agonists: BW245C (hDP); PGE2 (hEP1; hEP2/Gqs5; hEP3A/Gqi5; hEP4/Gqs5); PGF2α (hFP); carbacyclin (hIP); U-46619 (hTP), depending on receptor). The peak fluorescence change in each drug-containing well was then expressed relative to the controls.
as §2, with “averaged. In either, HTS or CoRe format each compound was tested on at least 3 separate plates using cells from different passages to give an n ≥ 3.” for “averaged.”

T1 sequence (P43116 whole entry): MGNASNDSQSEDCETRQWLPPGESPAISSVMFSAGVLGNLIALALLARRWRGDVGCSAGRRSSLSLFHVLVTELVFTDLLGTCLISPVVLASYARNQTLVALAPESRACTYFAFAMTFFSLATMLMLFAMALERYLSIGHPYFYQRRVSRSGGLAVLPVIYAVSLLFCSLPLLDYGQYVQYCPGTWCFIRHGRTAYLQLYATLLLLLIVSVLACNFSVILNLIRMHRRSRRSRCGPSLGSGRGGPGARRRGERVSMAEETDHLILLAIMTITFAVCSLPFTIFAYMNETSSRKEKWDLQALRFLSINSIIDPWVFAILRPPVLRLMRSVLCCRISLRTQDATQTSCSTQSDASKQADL

Question: How did the EC50 [1] turn out when `CCCC1(C(O)c2ccc([C@H]3CCC(=O)[C@@H]3C/C=C\CCCC(=O)O)cc2)CCC1` (some centres unmarked) [Entry 6] was run?
Answer: 2870 nM

Question: What about the EC50 [2] of the same molecule?
Answer: > 10000 nM
